{"source": "paper PMC5218480", "about": "(PLoS ONE, 2017)", "system": "MV-4-11 cells", "assay": "Gene expression microarray analysis (Affymetrix PrimeView) and GSEA", "format": "cell-based, human", "parameters": "RFU PODN (11730768_x_at) / Fold change /veh PODN (11730768_x_at) / RFU LINC00158 (11744669_a_at) / Fold change /veh LINC00158 (11744669_a_at) / RFU DUSP10 (11751237_a_at) / Fold change /veh DUSP10 (11751237_a_at) / RFU ID3 (11757404_x_at) / Fold change /veh ID3 (11757404_x_at) / RFU PLEKHG5 (11737974_s_at) / Fold change /veh PLEKHG5 (11737974_s_at) / RFU LRRC4B (11730491_at) / Fold change /veh LRRC4B (11730491_at) / RFU GIMAP4 (11747438_a_at) / Fold change /veh GIMAP4 (11747438_a_at) / RFU KRT8 (11758183_x_at) / Fold change /veh KRT8 (11758183_x_at) / RFU CNN1 (11734310_a_at) / Fold change /veh CNN1 (11734310_a_at) / RFU VPS37D (11726825_at) / Fold change /veh VPS37D (11726825_at) / RFU C10orf10 (11716522_x_at) / Fold change /veh C10orf10 (11716522_x_at) / RFU KIR2DL2 /// KIR2DL4 /// KIR2DL5A /// KIR2DL5B /// KIR2DS1 /// KIR2DS2 /// KIR2DS3 /// KIR2DS4 /// KIR3DL3 /// KIR3DL3 /// KIR3DS1 (11738374_at) / Fold change /veh KIR2DL2 /// KIR2DL4 /// KIR2DL5A /// KIR2DL5B /// KIR2DS1 /// KIR2DS2 /// KIR2DS3 /// KIR2DS4 /// KIR3DL3 /// KIR3DL3 /// KIR3DS1 (11738374_at) / RFU C1QL1 (11718748_at) / Fold change /veh C1QL1 (11718748_at) / RFU TMPRSS4 (11747572_a_at) / Fold change /veh TMPRSS4 (11747572_a_at) / RFU HAMP (11756126_x_at) / Fold change /veh HAMP (11756126_x_at) / RFU RNFT2 (11725882_a_at) / Fold change /veh RNFT2 (11725882_a_at) / RFU NR4A2 (11747474_a_at) / Fold change /veh NR4A2 (11747474_a_at) / RFU ABCC12 (11746883_a_at) / Fold change /veh ABCC12 (11746883_a_at) / RFU TMEM136 (11760407_x_at) / Fold change /veh TMEM136 (11760407_x_at) / RFU CLDN22 /// WWC2 (11732394_at) / Fold change /veh CLDN22 /// WWC2 (11732394_at) / RFU HLA-DPB1 (11760878_x_at) / Fold change /veh HLA-DPB1 (11760878_x_at) / RFU SPINT1 (11716480_a_at) / Fold change /veh SPINT1 (11716480_a_at) / RFU GAP43 (11754022_s_at) / Fold change /veh GAP43 (11754022_s_at) / RFU A4GNT (11735810_at) / Fold change /veh A4GNT (11735810_at) / RFU PRB3 (11715151_x_at) / Fold change /veh PRB3 (11715151_x_at) / RFU TUBB4B (11761932_at) / Fold change /veh TUBB4B (11761932_at) / RFU CAPN14 (11732068_a_at) / Fold change /veh CAPN14 (11732068_a_at) / RFU TMCC2 (11721928_a_at) / Fold change /veh TMCC2 (11721928_a_at) / RFU IRGQ (11745062_a_at) / Fold change /veh IRGQ (11745062_a_at) / RFU FAM174B (11720279_a_at) / Fold change /veh FAM174B (11720279_a_at) / RFU TMPRSS4 (11748680_a_at) / Fold change /veh TMPRSS4 (11748680_a_at) / RFU FAM212B (11763350_a_at) / Fold change /veh FAM212B (11763350_a_at) / RFU PLEKHG5 (11743358_a_at) / Fold change /veh PLEKHG5 (11743358_a_at) / RFU ZSCAN30 (11745921_a_at) / Fold change /veh ZSCAN30 (11745921_a_at) / RFU CMKLR1 (11741424_a_at) / Fold change /veh CMKLR1 (11741424_a_at) / RFU LOC101060620 /// MAPK8IP1 (11723275_at) / Fold change /veh LOC101060620 /// MAPK8IP1 (11723275_at) / RFU SPTSSB (11747773_x_at) / Fold change /veh SPTSSB (11747773_x_at) / RFU PRSS12 (11739890_at) / Fold change /veh PRSS12 (11739890_at) / RFU BIN1 (11741810_x_at) / Fold change /veh BIN1 (11741810_x_at) / RFU WNT11 (11732464_a_at) / Fold change /veh WNT11 (11732464_a_at) / RFU C10orf10 (11716521_a_at) / Fold change /veh C10orf10 (11716521_a_at) / RFU C5orf56 (11738089_at) / Fold change /veh C5orf56 (11738089_at) / RFU CYB561 (11721691_x_at) / Fold change /veh CYB561 (11721691_x_at) / RFU ANKRD19P (11752326_a_at) / Fold change /veh ANKRD19P (11752326_a_at) / RFU OR2T12 /// OR2T33 /// OR2T8 (11738714_s_at) / Fold change /veh OR2T12 /// OR2T33 /// OR2T8 (11738714_s_at) / RFU VCAN (11748164_a_at) / Fold change /veh VCAN (11748164_a_at) / RFU JSRP1 (11732532_at) / Fold change /veh JSRP1 (11732532_at) / RFU KRTAP10-11 (11738290_x_at) / Fold change /veh KRTAP10-11 (11738290_x_at) / RFU MYO3A (11730013_a_at) / Fold change /veh MYO3A (11730013_a_at) / RFU EBF3 (11725865_a_at) / Fold change /veh EBF3 (11725865_a_at) / RFU CAMK2N1 (11719241_x_at) / Fold change /veh CAMK2N1 (11719241_x_at) / RFU C5orf56 (11738088_a_at) / Fold change /veh C5orf56 (11738088_a_at) / RFU OLFML3 (11715873_a_at) / Fold change /veh OLFML3 (11715873_a_at) / RFU LOC100653217 /// NTM (11731650_a_at) / Fold change /veh LOC100653217 /// NTM (11731650_a_at) / RFU MAPK11 (11762145_a_at) / Fold change /veh MAPK11 (11762145_a_at) / RFU FIZ1 (11724087_x_at) / Fold change /veh FIZ1 (11724087_x_at) / RFU OASL (11726364_x_at) / Fold change /veh OASL (11726364_x_at) / RFU SOX15 (11748057_x_at) / Fold change /veh SOX15 (11748057_x_at) / RFU CD79A (11719716_a_at) / Fold change /veh CD79A (11719716_a_at) / RFU HIST1H1D (11736915_at) / Fold change /veh HIST1H1D (11736915_at) / RFU CASKIN2 (11723855_a_at) / Fold change /veh CASKIN2 (11723855_a_at) / RFU LOC730098 (11760151_x_at) / Fold change /veh LOC730098 (11760151_x_at) / RFU OR4N2 (11742367_at) / Fold change /veh OR4N2 (11742367_at) / RFU PRRT2 (11749266_a_at) / Fold change /veh PRRT2 (11749266_a_at) / RFU SNX32 (11753110_a_at) / Fold change /veh SNX32 (11753110_a_at) / RFU CDHR5 (11726645_a_at) / Fold change /veh CDHR5 (11726645_a_at) / RFU RCAN1 (11760418_a_at) / Fold change /veh RCAN1 (11760418_a_at) / RFU FAM167A (11723789_a_at) / Fold change /veh FAM167A (11723789_a_at) / RFU FAM26E (11764081_at) / Fold change /veh FAM26E (11764081_at) / RFU ISYNA1 (11749810_s_at) / Fold change /veh ISYNA1 (11749810_s_at) / RFU ACY1 (11761880_at) / Fold change /veh ACY1 (11761880_at) / RFU 11764098_at / Fold change /veh 11764098_at / RFU SAMD14 (11745864_x_at) / Fold change /veh SAMD14 (11745864_x_at) / RFU NPB (11741838_a_at) / Fold change /veh NPB (11741838_a_at) / RFU TMPRSS6 (11731388_a_at) / Fold change /veh TMPRSS6 (11731388_a_at) / RFU KRTAP10-2 (11738614_at) / Fold change /veh KRTAP10-2 (11738614_at) / RFU ARHGAP8 /// PRR5-ARHGAP8 (11727945_x_at) / Fold change /veh ARHGAP8 /// PRR5-ARHGAP8 (11727945_x_at) / RFU KRTAP5-7 /// NADSYN1 (11734609_at) / Fold change /veh KRTAP5-7 /// NADSYN1 (11734609_at) / RFU RASL12 (11751679_a_at) / Fold change /veh RASL12 (11751679_a_at) / RFU CDKN2B (11736163_a_at) / Fold change /veh CDKN2B (11736163_a_at) / RFU PRF1 (11729649_at) / Fold change /veh PRF1 (11729649_at) / RFU, ZNF638 /// ZNF638-IT1 / Fold change vs veh, ZNF638 /// ZNF638-IT1 / RFU, PANK3 / Fold change vs veh, PANK3 / RFU, SH3YL1 / Fold change vs veh, SH3YL1 / RFU, ZEB2 / Fold change vs veh, ZEB2 / RFU, NRIP1 / Fold change vs veh, NRIP1 / RFU, PTTG1IP / Fold change vs veh, PTTG1IP / RFU, CAPN2 / Fold change vs veh, CAPN2 / RFU, MED14 / Fold change vs veh, MED14 / RFU, SNORA58 / Fold change vs veh, SNORA58 / RFU, C1orf63 / Fold change vs veh, C1orf63 / RFU, LRRFIP1 / Fold change vs veh, LRRFIP1 / RFU, NDUFAF7 / Fold change vs veh, NDUFAF7 / RFU, SLC12A2 / Fold change vs veh, SLC12A2 / RFU, IBTK / Fold change vs veh, IBTK / RFU, ESF1 / Fold change vs veh, ESF1 / Fold change vs veh, TMEM50B / RFU, TAOK1 / Fold change vs veh, TAOK1 / RFU, ACBD3 / Fold change vs veh, ACBD3 / RFU, TMA16 / Fold change vs veh, TMA16 / RFU, RWDD3 / Fold change vs veh, RWDD3 / RFU, BCAT1 / Fold change vs veh, BCAT1 / RFU, EDEM3 / Fold change vs veh, EDEM3 / RFU, TMEM33 / Fold change vs veh, TMEM33 / RFU, WDR75 / Fold change vs veh, WDR75 / RFU, AHCTF1 / Fold change vs veh, AHCTF1 / RFU, TFRC / Fold change vs veh, TFRC / RFU, ZDHHC17 / Fold change vs veh, ZDHHC17 / RFU, NOM1 / Fold change vs veh, NOM1 / RFU, ARL8B / Fold change vs veh, ARL8B / RFU, ZBTB11 / Fold change vs veh, ZBTB11 / RFU, TAMM41 / Fold change vs veh, TAMM41 / RFU, KIAA1704 /// LOC100996395 / Fold change vs veh, KIAA1704 /// LOC100996395 / RFU, ING1 / Fold change vs veh, ING1 / RFU, TRMT61B / Fold change vs veh, TRMT61B / RFU, FUBP3 / Fold change vs veh, FUBP3 / RFU, TP53 / Fold change vs veh, TP53 / RFU, TNKS2 / Fold change vs veh, TNKS2 / RFU, ZFP14 / Fold change vs veh, ZFP14 / RFU, ACTR2 / Fold change vs veh, ACTR2 / RFU, PPP3R1 / Fold change vs veh, PPP3R1 / RFU, PIK3R1 / Fold change vs veh, PIK3R1 / RFU, HNRNPA1 / Fold change vs veh, HNRNPA1 / RFU, RNF170 / Fold change vs veh, RNF170 / RFU, ZNF28 / Fold change vs veh, ZNF28 / RFU, RNGTT / Fold change vs veh, RNGTT / RFU, OGT / Fold change vs veh, OGT / RFU, BRD1 / Fold change vs veh, BRD1 / RFU, MARS / Fold change vs veh, MARS / RFU, ZNF655 / Fold change vs veh, ZNF655 / RFU, FAHD1 / Fold change vs veh, FAHD1 / RFU, BDP1 / Fold change vs veh, BDP1 / RFU, LRRCC1 / Fold change vs veh, LRRCC1 / RFU, ARID1A / Fold change vs veh, ARID1A / RFU, ZNF146 / Fold change vs veh, ZNF146 / RFU, ZNF330 / Fold change vs veh, ZNF330 / RFU, GPN3 / Fold change vs veh, GPN3 / RFU, C9orf123 / Fold change vs veh, C9orf123 / RFU, N4BP2L2 / Fold change vs veh, N4BP2L2 / RFU, ARFIP1 / Fold change vs veh, ARFIP1 / RFU, FAM179B / Fold change vs veh, FAM179B / RFU, BCL10 / Fold change vs veh, BCL10 / RFU, UHRF1BP1L / Fold change vs veh, UHRF1BP1L / RFU, BET1 / Fold change vs veh, BET1 / RFU, CNOT2 / Fold change vs veh, CNOT2 / RFU, ZNF268 / Fold change vs veh, ZNF268 / Fold change vs veh, ZNF507 / RFU, DGCR2 / Fold change vs veh, DGCR2 / RFU, WDSUB1 / Fold change vs veh, WDSUB1 / Fold change vs veh, HSP90B1 /// MIR3652 / RFU, ADSS / Fold change vs veh, ADSS / RFU, GK / Fold change vs veh, GK / RFU, ZNF148 / Fold change vs veh, ZNF148 / RFU, TAF9 / Fold change vs veh, TAF9 / RFU, SLC1A5 / Fold change vs veh, SLC1A5 / RFU, SLMO2 / Fold change vs veh, SLMO2 / RFU, ABCC4 / Fold change vs veh, ABCC4 / RFU, LOC101060439 /// RAP1B / Fold change vs veh, LOC101060439 /// RAP1B / RFU, RFX7 / Fold change vs veh, RFX7 / RFU, GTPBP10 / Fold change vs veh, GTPBP10 / RFU, CNEP1R1 / Fold change vs veh, CNEP1R1 / RFU, BIVM-ERCC5 /// ERCC5 / Fold change vs veh, BIVM-ERCC5 /// ERCC5 / RFU, ILF3 / Fold change vs veh, ILF3 / RFU 11762660_at / Fold change /veh 11762660_at / RFU VCAN (11757783_s_at) / Fold change /veh VCAN (11757783_s_at) / RFU DDX43 (11728927_at) / Fold change /veh DDX43 (11728927_at) / RFU KRT8 (11758188_x_at) / Fold change /veh KRT8 (11758188_x_at) / RFU NKD1 (11759106_at) / Fold change /veh NKD1 (11759106_at) / RFU SRD5A1 (11742802_a_at) / Fold change /veh SRD5A1 (11742802_a_at) / RFU TPSAB1 /// TPSB2 (11721975_s_at) / Fold change /veh TPSAB1 /// TPSB2 (11721975_s_at) / RFU GSTM3 (11746129_a_at) / Fold change /veh GSTM3 (11746129_a_at) / RFU IL23R (11737362_x_at) / Fold change /veh IL23R (11737362_x_at) / RFU TMEM51 (11727254_a_at) / Fold change /veh TMEM51 (11727254_a_at) / RFU PIWIL2 (11732686_x_at) / Fold change /veh PIWIL2 (11732686_x_at) / RFU ORM1 (11744905_x_at) / Fold change /veh ORM1 (11744905_x_at) / RFU CCDC152 (11743942_at) / Fold change /veh CCDC152 (11743942_at) / RFU ECM1 (11717891_a_at) / Fold change /veh ECM1 (11717891_a_at) / RFU IL23R (11748794_a_at) / Fold change /veh IL23R (11748794_a_at) / RFU TNFAIP8L3 (11732012_x_at) / Fold change /veh TNFAIP8L3 (11732012_x_at) / RFU MBOAT4 (11741988_at) / Fold change /veh MBOAT4 (11741988_at) / RFU 11764193_at / Fold change /veh 11764193_at / RFU TMEM53 (11763286_at) / Fold change /veh TMEM53 (11763286_at) / RFU MAGEB2 (11727129_at) / Fold change /veh MAGEB2 (11727129_at) / RFU TMEM200A (11744735_a_at) / Fold change /veh TMEM200A (11744735_a_at) / RFU CCDC152 (11751479_a_at) / Fold change /veh CCDC152 (11751479_a_at) / RFU FAM211A (11726209_a_at) / Fold change /veh FAM211A (11726209_a_at) / RFU RGS16 (11746705_a_at) / Fold change /veh RGS16 (11746705_a_at) / RFU VCAN (11755009_s_at) / Fold change /veh VCAN (11755009_s_at) / RFU RHOB (11743442_s_at) / Fold change /veh RHOB (11743442_s_at) / RFU RGS16 (11720943_a_at) / Fold change /veh RGS16 (11720943_a_at) / RFU RGS16 (11720944_at) / Fold change /veh RGS16 (11720944_at) / RFU, VPS4B / Fold change vs veh, VPS4B / RFU, CREB1 / Fold change vs veh, CREB1 / RFU, DNAJC13 / Fold change vs veh, DNAJC13 / RFU, GNAQ / Fold change vs veh, GNAQ / RFU, CDK5R1 / Fold change vs veh, CDK5R1 / RFU, ZRANB3 / Fold change vs veh, ZRANB3 / RFU, CUL4A / Fold change vs veh, CUL4A / RFU, CCNY / Fold change vs veh, CCNY / RFU, UFL1 / Fold change vs veh, UFL1 / RFU, COG3 / Fold change vs veh, COG3 / RFU, DIAPH2 / Fold change vs veh, DIAPH2 / RFU, SKA2 / Fold change vs veh, SKA2 / RFU, AFF3 / Fold change vs veh, AFF3 / RFU, LMF1 / Fold change vs veh, LMF1 / RFU, IPO11 / Fold change vs veh, IPO11 / RFU, DFFB / Fold change vs veh, DFFB / RFU, FOXP1 / Fold change vs veh, FOXP1 / RFU, CARD8 / Fold change vs veh, CARD8 / RFU, STRN3 / Fold change vs veh, STRN3 / RFU, ADK / Fold change vs veh, ADK / RFU, RASSF2 / Fold change vs veh, RASSF2 / RFU, WIPF1 / Fold change vs veh, WIPF1 / RFU, LARP1B / Fold change vs veh, LARP1B / RFU, RASA1 / Fold change vs veh, RASA1 / RFU, RB1 / Fold change vs veh, RB1 / RFU, PPFIA1 / Fold change vs veh, PPFIA1 / RFU, MAT2A / Fold change vs veh, MAT2A / RFU, CCT5 / Fold change vs veh, CCT5 / RFU, WDR92 / Fold change vs veh, WDR92 / RFU, CUX1 / Fold change vs veh, CUX1 / RFU, TTC7A / Fold change vs veh, TTC7A / RFU, TMEM135 / Fold change vs veh, TMEM135 / RFU, DEPTOR / Fold change vs veh, DEPTOR / RFU, CPM / Fold change vs veh, CPM / RFU, DNAJB6 / Fold change vs veh, DNAJB6 / RFU, CACNA2D3 / Fold change vs veh, CACNA2D3 / RFU, DTX4 / Fold change vs veh, DTX4 / RFU, TFCP2 / Fold change vs veh, TFCP2 / RFU, GMCL1 /// GMCL1P1 / Fold change vs veh, GMCL1 /// GMCL1P1 / RFU, AEBP2 / Fold change vs veh, AEBP2 / RFU, SNHG1 /// SNORD22 /// SNORD25 /// SNORD26 /// SNORD27 /// SNORD28 /// SNORD29 /// SNORD31 / Fold change vs veh, SNHG1 /// SNORD22 /// SNORD25 /// SNORD26 /// SNORD27 /// SNORD28 /// SNORD29 /// SNORD31 / Fold change (Aza/veh), C12orf56 (ProbeSet 11735607_a_at) / Fold change (ACY-1035/veh), C12orf56 (ProbeSet 11735607_a_at) / Fold change (Aza/veh), FGFR1OP (ProbeSet 11751329_s_at) / Fold change (ACY-1035/veh), FGFR1OP (ProbeSet 11751329_s_at) / Fold change (Aza/veh), VPS36 (ProbeSet 11739960_a_at) / Fold change (ACY-1035/veh), VPS36 (ProbeSet 11739960_a_at) / RFU SYPL1 (11715823_x_at) / Fold change /veh SYPL1 (11715823_x_at) / RFU IGFBP7 (11715501_s_at) / Fold change /veh IGFBP7 (11715501_s_at) / RFU REEP3 (11722064_at) / Fold change /veh REEP3 (11722064_at) / RFU IGLL1 (11728026_x_at) / Fold change /veh IGLL1 (11728026_x_at): dose or concentration left out as unconfirmed", "details": "ProbeSet 11719493_s_at; LIST B", "data": [{"smiles": "Nc1ncn([C@@H]2O[C@H](CO)[C@@H](O)[C@H]2O)c(=O)n1", "note": "[azacitidine]", "values": [{"measurement": "Fold change vs veh, TAF9", "value": 1.00}]}]}
